Assay results as given in PMC4875998, “Liposomal Systems as Nanocarriers for the Antiviral Agent Ivermectin” (International Journal of Biomaterials, 2016).

Experiments:
[1] = Cytotoxicity (methylene blue / MTS assay), CC50; conditions: African green monkey, Vero-F cells
Japanese encephalitis = tested on: Japanese encephalitis; parameters: method as in PMID 22535622; conditions: in vitro; cited from earlier work
[2] = Cytotoxicity (methylene blue / MTS assay), CC50; conditions: African green monkey, Vero-118 cells
Vero-118 cells = test: Cytotoxicity (methylene blue / MTS assay), CC50; conditions: cell lines of Figure 6(b) / Table 2 (Vero-118, BHK, RAW)
[3] = tested on: tick-borne encephalitis viruses; conditions: in vitro; cited from earlier work
[4] = Cytotoxicity (methylene blue / MTS assay), CC50; conditions: mouse, RAW 264.7 cells
[5] = Cytotoxicity (methylene blue / MTS assay), CC50; conditions: hamster, BHK cells
Cytotoxicity, CC50 = conditions: human, Half maximal cytotoxic concentration (CC50) Huh-7, Huh-7 cells; value not marked with the 48 h footnote
Huh-7 cells = test: Cytotoxicity, CC50; conditions: read-out: Half maximal cytotoxic concentration (CC50) Huh-7; Huh-7 cells; value not marked with the 48 h footnote
Yellow Fever = conditions: in vitro; cited from earlier work
Dengue Fever = tested on: Dengue Fever; parameters: method as in PMID 22535622; conditions: in vitro; cited from earlier work

Compound	CC50 at 4 days [1] [µM]	EC50 (Japanese encephalitis)	CC50 at 4 days [2] [µM]	Times more cytotoxic in comparison to 2-cmc (Vero-118 cells) [times]	EC50 [3]	CC50 at 4 days [4] [µM]	CC50 at 4 days [5] [µM]	CC50 (Cytotoxicity, CC50) [µM]	CC50 (Huh-7 cells) [µM]	EC50 (Yellow Fever)	EC50 (Dengue Fever)
CC[C@H](C)[C@H]1O[C@]2(CC[C@@H]1C)C[C@@H]1C[C@@H](C/C=C(\C)[C@@H](O[C@H]3C[C@H](OC)[C@@H](O[C@H]4C[C@H](OC)[C@@H](O)[C@H](C)O4)[C@H](C)O3)[C@@H](C)/C=C/C=C3\CO[C@@H]4[C@H](O)C(C)=C[C@@H](C(=O)O1)[C@]34O)O2 [Ivermectin, 22,23-dihydroavermectin B1]	23.6	submicromolar	5.7	10	submicromolar	0.8	1.5	7.3	10	subnanomolar range	submicromolar
C[C@@]1(O)[C@H](O)[C@@H](CO)O[C@H]1n1ccc(N)nc1=O [2-cmc, 2′-c-Methylcytidine]	–	–	117	–	–	37.6	238	–	–	–	–
